Data: patent US5283331A, “2-halogeno-oxetanocin A and phosphoric ester thereof” (Nippon Kayaku Kabushiki Kaisha, priority 1990, dated 1994)
Values after ≈ are worked out from the molar mass of the structure shown.

Assays:
virus = conditions: prior art: Journal of Antibiotics 39, 1623-25 (1986), EP-A2-0182315; cited from earlier work
[1] = tested on: cytomegalovirus (A0169 strain); test: Anti-cytomegalovirus activity (plaque reduction in human embryo fibroblast); format: cell-based; conditions: for EC50: Human betaherpesvirus 5, 240 h, plaque number, human embryo fibroblast, 10 days, 37° C., read-out: Anti-cytomegalovirus activity ED50 (50% inhibitory value)
Experimental: Anti-cytomegalovirus activity was measured in the following manner. Thus, a 35 mm dish having a single layer of human embryo fibroblast was infected with 100 PFU (Plaque Forming Units) of cytomegalovirus (A0169 strain). After adsorption for one hour, it was covered with a layer of a medium [0.5% agarose and 2% fetal calf serum] containing a varied concentration of a compound of this invention. After culturing it for 10 days at 37° C. in a 5% (v/v) carbon dioxide incubator, the number of plaques formed was measured.

[2] = Stability to adenosine deaminase (residual percentage by HPLC); format: in vitro ADME, young calf; conditions: bovine, pH 6.8, 37° C., 5 units adenosine deaminase; for remaining at 0.5 h: 30 min; for remaining at 1 h: 60 min; for remaining at 2 h: 120 min
Experimental: (§1) Sample (0.05 ml) was dissolved into 20 ml of 0.1M phosphate buffer (pH 6.8), and 5 units of adenosine deaminase originated from young calf intestinal mucous membrane (SIGMA Product No. A-1155) was added. While keeping the resulting mixture at a constant temperature of 37° C., its 1 ml portion was sampled out at predetermined intervals. After adding 1 μmole of coformycin and 10-hold diluting the mixture with water, residual percentage of the sample was determined by reverse phase high performance liquid chromatography (column: Senshu Pak ODS-5121-N, 6.phi.×150 mm; eluent: 0.1M citrate buffer-acetonitrile-methanol (50:2:1); flow rate: 1.8 ml/min.; detection: UV detector, 254 nm).

adenosine deaminase = test: as above; format: in vitro ADME, young calf; conditions: 0 min; pH 6.8, 37° C., 5 units adenosine deaminase
Experimental: as §1

HIV = test: Anti-HIV activity in MT-4 cells (viral antigen expression, fluorescent antibody method); format: cell-based
Experimental: Anti-HIV activity (anti-Human Immunodeficiency Virus activity) was measured in the following manner. Thus, about 100,000 cells/ml of MT-4 cells were placed in a 24-well tray, and 100 μl of a solution containing a predetermined quantity of a compound of this invention was added thereto. After culturing it at 37° C. for 2 hours in a 5% (v/v) carbon dioxide incubator, 2.5×10^5 infection units of HIV was added and cultured for 4 days. Then, a portion of the culture fluid was applied onto a slide glass and immobilized with acetone, after which expression of the viral antigen was tested according to the fluorescent antibody method. As the primary antibody of the fluorescent antibody method, a serum of AIDS patient was used. As the secondary antibody, FITC-labelled anti-human IgG was used.
The test were conducted in a comparative manner, using oxetanocin A as a control substance for each of Experiment 1 and 2.

## Nc1ncnc2c1ncn2[C@@H]1O[C@H](CO)[C@H]1CO [Oxetanocin]
virus
  antiviral activity (in words): having an antiviral activity

## Nc1ncnc2c1ncn2[C@@H]1O[C@H](CO)[C@H]1CO [Oxetanocin A]
[1]
  EC50: 13 µg/mL (≈ 51.7 µM)
[2]
  remaining at 10 min: 85%
  remaining at 0.5 h: 28%
  remaining at 1 h: 0%
  remaining at 2 h: 0%
Adenosine deaminase
  Residual percentage (%): 100%

## Nc1nc(Cl)nc2c1ncn2[C@@H]1O[C@H](COP(=O)(O)O)[C@H]1CO [Compound No. 6, 2-Chloro-oxetanocin A 4'-phosphate]
[2]
  remaining at 10 min: 100%
  remaining at 0.5 h: 100%
  remaining at 1 h: 100%
  remaining at 2 h: 100%
Adenosine deaminase
  Residual percentage (%): 100%
HIV
  activity against HIV (in words): excellent activities against HIV

## Nc1nc(F)nc2c1ncn2[C@@H]1O[C@H](CO)[C@H]1CO [Compound No. 1, 2-Fluoro-oxetanocin A]
[1]
  activity against cytomegalovirus (in words): excellent activity against cytomegalovirus
  EC50: 0.3 µg/mL (≈ 1.11 µM)
[2]
  remaining at 10 min: 100%
  remaining at 0.5 h: 100%
  remaining at 1 h: 100%
  remaining at 2 h: 100%
Adenosine deaminase
  Residual percentage (%): 100%
HIV
  activity against HIV (in words): excellent activities against HIV

## Nc1nc(Cl)nc2c1ncn2[C@@H]1O[C@H](CO)[C@H]1CO [Compound No. 2, 2-Chloro-oxetanocin A]
[2]
  remaining at 10 min: 100%
  remaining at 0.5 h: 100%
  remaining at 1 h: 100%
  remaining at 2 h: 100%
Adenosine deaminase
  Residual percentage (%): 100%
HIV
  activity against HIV (in words): excellent activities against HIV

## Nc1nc(F)nc2c1ncn2[C@@H]1O[C@H](COP(=O)(O)O)[C@H]1CO [Compound No. 5, 2-Fluoro-oxetanocin A 4'-phosphate]
[2]
  remaining at 10 min: 100%
  remaining at 0.5 h: 100%
  remaining at 1 h: 100%
  remaining at 2 h: 100%
Adenosine deaminase
  Residual percentage (%): 100%
